Assay results from ChEMBL document CHEMBL6096701 (J Med Chem, 2025).
The source made the active and inactive calls. The rule behind the calls is not given here.

Columns and labels:
[1] = Upregulation of IL-10 level in human CD4+ T cell by flow cytometry analysis; assay type: functional, cell-based
[2] = target: Cyclin-dependent kinase 8/19 (Homo sapiens, UniProt P49336+Q9BWU1); test: Binding affinity to CDK8/CDK19 complex in human CD4+ T cell assessed as upregulation of IL-10 level; assay type: cell-based
[3] = system: Mus musculus; test: Anti-inflammatory activity in LPS-induced male CD-1 mouse acute inflammatory model assessed as peak IL-10 level at 50 mg/kg, sc preincubated for 15 mins followed by LPS stimulation and measured after 2 hrs relative to control; assay type: functional; details: time 135 min, 2.25 h
[4] = Upregulation of IL-10 level in human whole blood cell preincubated for 30 mins followed by LPS stimulation and measured after 23 hrs by MSD analysis; assay type: functional, cell-based
[5] = Upregulation of IL-10 level in mouse whole blood cell preincubated for 30 mins followed by LPS stimulation and measured after 23 hrs by MSD analysis; assay type: functional, cell-based
[6] = Upregulation of TNF-alpha level in human CD4+ T cell by flow cytometry analysis; assay type: functional, cell-based
[7] = system: Mus musculus; test: Anti-inflammatory activity in LPS-induced male CD-1 mouse acute inflammatory model assessed as peak IL-10 level at 1 mg/kg, sc preincubated for 15 mins followed by LPS stimulation and measured after 2 hrs relative to control; assay type: functional; details: time 135 min, 2.25 h
[8] = system: Mus musculus; test: Anti-inflammatory activity in LPS-induced male CD-1 mouse acute inflammatory model assessed as peak IL-10 level at 10 mg/kg, sc preincubated for 15 mins followed by LPS stimulation and measured after 2 hrs relative to control; assay type: functional; details: time 135 min, 2.25 h
[9] = system: Mus musculus; test: Anti-inflammatory activity in LPS-induced male CD-1 mouse acute inflammatory model assessed as effect on IL-10 level at 50 mg/kg, sc preincubated for 15 mins followed by LPS stimulation and measured after 3.5 hrs; assay type: functional, organism-based; details: time 225.0 min
[10] = Metabolic stability in human hepatocytes assessed as intrinsic clearance by LC-MS/MS analysis; assay type: ADME, cell-based, Hepatocyte; details: read-out: CLH
[11] = target: Cyclin-dependent kinase 7 (Homo sapiens) (UniProt P50613); test: Binding affinity to CDK7 (unknown origin)
[12] = target: Cyclin-dependent kinase 6 (Homo sapiens) (UniProt Q00534); test: Binding affinity to CDK6 (unknown origin)
[13] = target: Cyclin-dependent kinase 10 (Homo sapiens) (UniProt Q15131); test: Binding affinity to CDK10 (unknown origin)
[14] = target: Serine/threonine-protein kinase SIK2 (Homo sapiens) (UniProt Q9H0K1); test: Binding affinity to SIK2 (unknown origin) by FRET biochemical assay
[15] = target: Glycogen synthase kinase-3 beta (Homo sapiens) (UniProt P49841); test: Binding affinity to GSK3beta (unknown origin)
[16] = target: Cyclin-dependent kinase 9 (Homo sapiens) (UniProt P50750); test: Binding affinity to CDK9 (unknown origin)
[17] = target: Serine/threonine-protein kinase SIK1 (Homo sapiens) (UniProt P57059); test: Binding affinity to SIK1 (unknown origin) by FRET biochemical assay
[18] = target: Cyclin-dependent kinase 5 (Homo sapiens) (UniProt Q00535); test: Binding affinity to CDK5 (unknown origin)
[19] = target: Serine/threonine-protein kinase SIK3 (Homo sapiens) (UniProt Q9Y2K2); test: Binding affinity to SIK3 (unknown origin) by FRET biochemical assay
[20] = target: Glycogen synthase kinase-3 alpha (Homo sapiens) (UniProt P49840); test: Binding affinity to GSK3alpha (unknown origin)
[21] = target: Cyclin-dependent kinase 2 (Homo sapiens) (UniProt P24941); test: Binding affinity to CDK2 (unknown origin)

Chain of Serine/threonine-protein kinase SIK2 (Homo sapiens) (Q9H0K1 whole entry, looked up): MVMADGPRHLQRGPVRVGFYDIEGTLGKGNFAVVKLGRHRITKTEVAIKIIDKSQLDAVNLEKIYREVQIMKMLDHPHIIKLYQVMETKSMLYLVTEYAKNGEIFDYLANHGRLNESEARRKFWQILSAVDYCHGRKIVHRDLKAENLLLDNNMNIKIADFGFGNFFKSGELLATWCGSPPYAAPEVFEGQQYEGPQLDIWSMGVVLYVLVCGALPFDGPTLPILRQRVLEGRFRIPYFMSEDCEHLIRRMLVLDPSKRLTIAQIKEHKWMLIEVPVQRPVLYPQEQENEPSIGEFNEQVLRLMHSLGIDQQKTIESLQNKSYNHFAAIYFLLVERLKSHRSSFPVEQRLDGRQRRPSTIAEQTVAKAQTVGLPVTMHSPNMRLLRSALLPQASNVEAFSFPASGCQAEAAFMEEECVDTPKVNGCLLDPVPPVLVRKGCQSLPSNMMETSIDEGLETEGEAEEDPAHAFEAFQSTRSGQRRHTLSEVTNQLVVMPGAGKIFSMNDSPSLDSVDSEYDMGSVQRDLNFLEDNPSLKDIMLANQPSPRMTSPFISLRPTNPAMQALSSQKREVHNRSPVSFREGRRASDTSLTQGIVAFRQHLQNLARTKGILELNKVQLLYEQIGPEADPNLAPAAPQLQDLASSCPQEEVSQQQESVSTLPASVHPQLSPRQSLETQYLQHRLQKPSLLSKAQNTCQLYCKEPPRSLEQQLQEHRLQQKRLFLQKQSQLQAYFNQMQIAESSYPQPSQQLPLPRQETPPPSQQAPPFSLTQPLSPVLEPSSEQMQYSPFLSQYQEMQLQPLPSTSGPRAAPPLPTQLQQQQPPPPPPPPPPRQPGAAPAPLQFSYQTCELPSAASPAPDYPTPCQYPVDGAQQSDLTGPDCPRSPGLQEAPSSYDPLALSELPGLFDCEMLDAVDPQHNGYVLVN
Chain of Serine/threonine-protein kinase SIK1 (Homo sapiens) (P57059 whole entry): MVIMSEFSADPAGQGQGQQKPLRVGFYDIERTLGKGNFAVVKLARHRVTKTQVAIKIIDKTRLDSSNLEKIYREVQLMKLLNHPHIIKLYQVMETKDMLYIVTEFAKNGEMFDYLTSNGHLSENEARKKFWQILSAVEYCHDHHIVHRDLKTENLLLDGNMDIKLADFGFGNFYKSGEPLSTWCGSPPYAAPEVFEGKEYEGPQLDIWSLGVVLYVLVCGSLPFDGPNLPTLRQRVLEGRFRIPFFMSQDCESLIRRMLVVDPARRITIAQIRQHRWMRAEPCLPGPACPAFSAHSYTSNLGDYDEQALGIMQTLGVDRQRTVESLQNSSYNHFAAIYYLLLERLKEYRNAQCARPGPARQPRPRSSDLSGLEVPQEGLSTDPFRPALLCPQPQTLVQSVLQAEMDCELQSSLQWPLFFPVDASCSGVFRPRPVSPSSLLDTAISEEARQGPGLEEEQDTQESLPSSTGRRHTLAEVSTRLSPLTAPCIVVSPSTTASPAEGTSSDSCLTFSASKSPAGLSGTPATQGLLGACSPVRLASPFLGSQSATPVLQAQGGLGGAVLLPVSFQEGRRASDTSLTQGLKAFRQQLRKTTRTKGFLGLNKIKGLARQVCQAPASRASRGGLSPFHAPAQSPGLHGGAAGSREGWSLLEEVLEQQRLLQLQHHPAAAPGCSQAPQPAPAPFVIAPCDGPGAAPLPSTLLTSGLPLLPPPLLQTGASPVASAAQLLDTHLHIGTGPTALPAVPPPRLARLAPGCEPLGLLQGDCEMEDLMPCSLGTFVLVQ
Chain of Glycogen synthase kinase-3 alpha (Homo sapiens) (P49840 2-483 limits assumed): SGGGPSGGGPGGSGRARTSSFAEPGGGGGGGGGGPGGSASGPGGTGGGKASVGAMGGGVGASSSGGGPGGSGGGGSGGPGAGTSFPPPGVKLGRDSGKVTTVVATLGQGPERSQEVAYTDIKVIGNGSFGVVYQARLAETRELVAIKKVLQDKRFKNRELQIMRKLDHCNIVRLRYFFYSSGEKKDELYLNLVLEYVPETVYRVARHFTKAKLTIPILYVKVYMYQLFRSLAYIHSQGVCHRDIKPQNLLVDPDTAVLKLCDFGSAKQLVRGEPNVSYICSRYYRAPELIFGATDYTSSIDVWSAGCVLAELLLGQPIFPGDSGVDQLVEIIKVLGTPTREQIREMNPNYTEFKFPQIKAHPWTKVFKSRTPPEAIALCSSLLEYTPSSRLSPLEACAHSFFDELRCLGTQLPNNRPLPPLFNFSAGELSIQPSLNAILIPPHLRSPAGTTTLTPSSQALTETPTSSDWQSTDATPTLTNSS
Chain of Cyclin-dependent kinase 5 (Homo sapiens) (Q00535 whole entry, looked up): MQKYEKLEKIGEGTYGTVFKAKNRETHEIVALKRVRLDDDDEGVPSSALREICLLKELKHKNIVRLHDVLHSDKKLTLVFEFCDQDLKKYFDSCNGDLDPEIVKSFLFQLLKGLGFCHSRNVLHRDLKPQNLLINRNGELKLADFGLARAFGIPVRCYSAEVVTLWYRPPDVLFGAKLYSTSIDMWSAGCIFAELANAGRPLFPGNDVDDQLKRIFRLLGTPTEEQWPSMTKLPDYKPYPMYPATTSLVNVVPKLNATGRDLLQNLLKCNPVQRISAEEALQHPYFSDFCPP
Chain of Cyclin-dependent kinase 10 (Homo sapiens) (Q15131 whole entry): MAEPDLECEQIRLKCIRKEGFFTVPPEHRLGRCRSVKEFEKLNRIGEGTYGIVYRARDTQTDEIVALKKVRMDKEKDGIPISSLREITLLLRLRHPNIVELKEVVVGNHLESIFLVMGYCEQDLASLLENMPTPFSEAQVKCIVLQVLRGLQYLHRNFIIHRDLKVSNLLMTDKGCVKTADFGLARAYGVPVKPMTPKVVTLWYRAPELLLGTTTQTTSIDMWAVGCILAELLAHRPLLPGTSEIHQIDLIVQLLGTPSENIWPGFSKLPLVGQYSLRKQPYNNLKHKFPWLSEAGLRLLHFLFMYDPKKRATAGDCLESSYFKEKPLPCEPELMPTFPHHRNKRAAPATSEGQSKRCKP
Chain of Cyclin-dependent kinase 6 (Homo sapiens) (Q00534 whole entry): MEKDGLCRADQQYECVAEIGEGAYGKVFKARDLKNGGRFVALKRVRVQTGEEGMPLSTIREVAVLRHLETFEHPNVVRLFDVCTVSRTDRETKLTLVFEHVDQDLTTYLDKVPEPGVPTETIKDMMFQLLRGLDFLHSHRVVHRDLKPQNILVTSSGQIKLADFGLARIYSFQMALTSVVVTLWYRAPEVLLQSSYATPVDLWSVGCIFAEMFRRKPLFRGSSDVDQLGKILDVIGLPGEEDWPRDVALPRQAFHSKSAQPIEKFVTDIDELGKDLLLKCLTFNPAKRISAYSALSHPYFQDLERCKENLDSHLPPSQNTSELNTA
Chain of Glycogen synthase kinase-3 beta (Homo sapiens) (P49841 whole entry, looked up): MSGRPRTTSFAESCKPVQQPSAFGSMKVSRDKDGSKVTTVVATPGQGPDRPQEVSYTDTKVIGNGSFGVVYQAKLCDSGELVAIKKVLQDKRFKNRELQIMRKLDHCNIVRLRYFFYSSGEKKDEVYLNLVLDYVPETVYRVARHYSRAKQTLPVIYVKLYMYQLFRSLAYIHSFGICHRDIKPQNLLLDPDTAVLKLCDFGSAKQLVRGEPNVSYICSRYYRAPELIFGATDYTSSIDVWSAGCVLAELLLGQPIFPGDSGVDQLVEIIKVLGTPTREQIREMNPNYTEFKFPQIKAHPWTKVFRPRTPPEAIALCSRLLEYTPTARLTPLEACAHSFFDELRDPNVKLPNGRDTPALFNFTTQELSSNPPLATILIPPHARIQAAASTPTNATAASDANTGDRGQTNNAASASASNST
Chain of Cyclin-dependent kinase 9 (Homo sapiens) (P50750 whole entry): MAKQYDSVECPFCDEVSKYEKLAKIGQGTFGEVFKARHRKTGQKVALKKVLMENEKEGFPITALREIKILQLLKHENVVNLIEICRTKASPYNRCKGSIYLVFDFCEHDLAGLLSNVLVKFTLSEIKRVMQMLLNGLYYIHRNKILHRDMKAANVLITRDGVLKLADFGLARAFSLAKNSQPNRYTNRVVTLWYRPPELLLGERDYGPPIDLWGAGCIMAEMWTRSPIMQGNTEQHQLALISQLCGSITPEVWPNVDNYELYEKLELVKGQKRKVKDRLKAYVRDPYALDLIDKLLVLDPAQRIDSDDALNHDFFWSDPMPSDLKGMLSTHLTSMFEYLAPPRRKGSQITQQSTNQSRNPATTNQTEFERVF
Chain of Cyclin-dependent kinase 7 (Homo sapiens) (P50613 whole entry): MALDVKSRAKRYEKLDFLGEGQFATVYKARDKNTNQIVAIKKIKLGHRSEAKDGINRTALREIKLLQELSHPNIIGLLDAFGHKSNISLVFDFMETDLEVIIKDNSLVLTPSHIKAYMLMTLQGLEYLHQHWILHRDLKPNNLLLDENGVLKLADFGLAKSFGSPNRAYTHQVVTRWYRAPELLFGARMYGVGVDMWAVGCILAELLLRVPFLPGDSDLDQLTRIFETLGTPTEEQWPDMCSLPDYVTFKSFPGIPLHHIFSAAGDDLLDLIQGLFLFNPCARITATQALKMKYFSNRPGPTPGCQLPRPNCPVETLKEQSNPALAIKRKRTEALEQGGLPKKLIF

SMILES | EC50 [1] [nM] | other results
N#Cc1cc(C(=O)N2CCOC(c3ccnc(N4CCCC4)n3)C2)co1 (racemic) | > 25000 | –
N#Cc1ncc(C(=O)N2CCOC(c3ccnc(N4CCCC4)n3)C2)s1 (racemic) | > 25000 | –
N#Cc1cc(C(=O)N2CCC[C@H](c3ccnc(N4CC[C@@H](F)C4)n3)C2)c[nH]1 | 178 | –
N#Cc1cc(C(=O)N2C[C@@H](c3ccnc(N4CCCC4)n3)CC(F)(F)C2)c[nH]1 | 263 | –
Cc1[nH]c(C#N)cc1C(=O)N1CCOC(c2ccnc(N3CCCC3)n2)C1 (racemic) | 490 | –
CCN(CC)c1nccc(C2CCCN(C(=O)c3c[nH]c(C#N)c3)C2)n1 (racemic) | > 25000 | –
C[C@@H]1CCN(C(=O)c2c[nH]c(C#N)c2)C[C@H]1c1ccnc(N2CCCC2)n1 | 437 | –
C[C@@H]1CC[C@H](c2ccnc(N3CCCC3)n2)CN1C(=O)c1c[nH]c(C#N)c1 | 33 | –
N#Cc1cc(C(=O)N2CCO[C@H](c3ccnc(N4CCCC4)n3)C2)c[nH]1 | 1050 | –
N#Cc1cc(C(=O)N2CCC[C@H](c3ccnc(N4CCCC4)n3)C2)c[nH]1 | 275 | EC50 [2]: 0.275 µM
N#Cc1cc(C(=O)N2CCCC(c3cc(N4CCCC4)ncn3)C2)c[nH]1 (racemic) | > 25000 | –
Cn1cc(C(=O)N2CCOC(c3ccnc(N4CCCC4)n3)C2)cc1C#N (racemic) | > 25000 | –
N#Cc1cc(C(=O)N2CCC[C@@H](c3ccnc(N4CCCC4)n3)C2)c[nH]1 | 275 | EC50 [2]: 6.3 µM
N#Cc1cc(C(=O)N2CCCC(F)(c3ccnc(N4CCCC4)n3)C2)c[nH]1 (racemic) | 676 | –
CO[C@@H]1C[C@H](c2ccnc(N3CCCC3)n2)CN(C(=O)c2c[nH]c(C#N)c2)C1 | 102 | –
CO[C@@H]1C[C@H](c2ccnc(N3CC[C@@H](F)C3)n2)CN(C(=O)c2c[nH]c(C#N)c2)C1 | 46 | Activity [3]: 500%; EC50 [4]: 50 nM; EC50 [5]: 63 nM; EC50 [6]: > 25 µM; Activity [7]: 150%; Activity [8]: 176%; Activity [9]: Active
Cc1[nH]c(C#N)cc1C(=O)N1CCCC(c2ccnc(N3CCCC3)n2)C1 (racemic) | 355 | –

SMILES | EC50 [1] [nM] | other results
CCc1nccc(C2CCCN(C(=O)c3c[nH]c(C#N)c3)C2)n1 (racemic) | > 25000 | –
N#Cc1cc(C(=O)N2CCCC(c3ncnc(N4CCCC4)n3)C2)c[nH]1 (racemic) | > 25000 | –
N#Cc1cc(C(=O)N2CCC[C@H](c3ccnc(N4CCC(F)(F)C4)n3)C2)c[nH]1 | 955 | –
C[C@@H]1C[C@H](c2ccnc(N3CCCC3)n2)CN(C(=O)c2c[nH]c(C#N)c2)C1 | 251 | CLint scaled [10]: 90 mL/min/kg
N#Cc1c[nH]c(C(=O)N2CCOC(c3ccnc(N4CCCC4)n3)C2)c1 (racemic) | 275 | Activity [11]: inactive; Activity [12]: inactive; Activity [13]: inactive; Activity [14]: inactive; Activity [15]: inactive; Activity [16]: inactive; Activity [17]: inactive; Activity [18]: inactive; Activity [19]: inactive; Activity [20]: inactive; Activity [21]: inactive
N#Cc1coc(C(=O)N2CCOC(c3ccnc(N4CCCC4)n3)C2)c1 (racemic) | > 25000 | –
N#Cc1cc(C(=O)N2CCCC(c3ccnc(N4CCCCC4)n3)C2)c[nH]1 (racemic) | 2000 | –
N#Cc1ccc(C(=O)N2CCOC(c3ccnc(N4CCCC4)n3)C2)[nH]1 (racemic) | > 25000 | –
N#Cc1cc(C(=O)N2CCC[C@H](c3ccnc(N4CC[C@H](F)C4)n3)C2)c[nH]1 | 955 | –
CO[C@H]1C[C@@H](c2ccnc(N3CC[C@@H](F)C3)n2)CN(C(=O)c2c[nH]c(C#N)c2)C1 | 2400 | –
Cc1cc(C2CCCN(C(=O)c3c[nH]c(C#N)c3)C2)nc(N2CCCC2)n1 (racemic) | > 25000 | –
N#Cc1c[nH]c(C(=O)N2CCO[C@H](c3ccnc(N4CCCC4)n3)C2)c1 | 5890 | Activity [11]: inactive; Activity [12]: inactive; Activity [13]: inactive; Activity [14]: inactive; Activity [15]: inactive; Activity [16]: inactive; Activity [17]: inactive; Activity [18]: inactive; Activity [19]: inactive; Activity [20]: inactive; Activity [21]: inactive
N#Cc1cc(C(=O)N2CCOC(c3ccnc(N4CCCC4)n3)C2)n[nH]1 (racemic) | > 25000 | –
CC(C)COc1nccc(C2CCCN(C(=O)c3c[nH]c(C#N)c3)C2)n1 (racemic) | > 25000 | –
C[C@H]1CCCN1c1nccc([C@H]2CCCN(C(=O)c3c[nH]c(C#N)c3)C2)n1 | 339 | –
N#Cc1cc(C(=O)N2CCCC(c3ccnc(-n4cccn4)n3)C2)c[nH]1 (racemic) | 9120 | –
NC(=O)c1c[nH]c(C(=O)N2CCOC(c3ccnc(N4CCCC4)n3)C2)c1 (racemic) | > 25000 | –
